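Tested at 5 concentrations; 48 h exposure; 96-well plates; endpoints linearly interpolated, else capped at highest concentration. Here, GI50 denotes the concentration required for 50% inhibition of growth.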 The source made the active and inactive calls. Cut-off read from the data, not from the text of the source: active = GI50 up to about 1.1 µM and inactive = higher.
Columns and labels:
Test in all cases: DTP human tumour cell line panel, 48 h
SR = tested on: SR
Malme-3M = tested on: Malme-3M
NCI-H226 = tested on: NCI-H226
HCC 2998 = tested on: HCC 2998
CCRF-CEM = tested on: CCRF-CEM
SF-539 = tested on: SF-539
HOP-92 = tested on: HOP-92
Hs-578T = tested on: Hs-578T
OVCAR-3 = tested on: OVCAR-3
BT-549 = tested on: BT-549
SNB-75 = tested on: SNB-75
DU-145 = tested on: DU-145
SF-268 = tested on: SF-268
NCI-H460 = tested on: NCI-H460
OVCAR-4 = tested on: OVCAR-4
CAKI-1 = tested on: CAKI-1
TK-10 = tested on: TK-10
UO-31 = tested on: UO-31
A498 = tested on: A498
NCI/ADR-RES = tested on: NCI/ADR-RES

Compound	GI50 (SR)	GI50 (Malme-3M)	GI50 (NCI-H226)	GI50 (HCC 2998)	GI50 (CCRF-CEM)	GI50 (SF-539)	GI50 (HOP-92)	GI50 (Hs-578T)	GI50 (OVCAR-3)	GI50 (BT-549)	GI50 (SNB-75)	GI50 (DU-145)	GI50 (SF-268)	GI50 (NCI-H460)	GI50 (OVCAR-4)	GI50 (CAKI-1)	GI50 (TK-10)	GI50 (UO-31)	GI50 (A498)	GI50 (NCI/ADR-RES)
Nc1sc2c(c1C(=O)c1ccc(Cl)c(Cl)c1)CCCC2	27.8 µM (inactive)	59.4 µM (inactive)	> 100 µM (inactive)	17.3 µM (inactive)	26.4 µM (inactive)	71.8 µM (inactive)	24.5 µM (inactive)	70.8 µM (inactive)	60.4 µM (inactive)	20.3 µM (inactive)	12.1 µM (inactive)	> 100 µM (inactive)	45.8 µM (inactive)	40.1 µM (inactive)	28.7 µM (inactive)	56.8 µM (inactive)	41.9 µM (inactive)	58.2 µM (inactive)		
O=C(O)CSc1nnc(COc2ccccc2)n1-c1ccccc1	> 100 µM (inactive)	> 100 µM (inactive)	> 100 µM (inactive)	> 100 µM (inactive)	> 100 µM (inactive)	> 100 µM (inactive)	> 100 µM (inactive)		> 100 µM (inactive)		> 100 µM (inactive)		> 100 µM (inactive)	> 100 µM (inactive)	> 100 µM (inactive)		> 100 µM (inactive)	> 100 µM (inactive)	> 100 µM (inactive)	
CN1C(=O)CC(CC(=O)C2CCCCC2=O)CC1=O (stereo unspecified)	> 100 µM (inactive)	> 100 µM (inactive)	> 100 µM (inactive)	> 100 µM (inactive)	> 100 µM (inactive)	> 100 µM (inactive)	> 100 µM (inactive)		> 100 µM (inactive)		> 100 µM (inactive)		> 100 µM (inactive)	> 100 µM (inactive)	> 100 µM (inactive)	> 100 µM (inactive)	> 100 µM (inactive)	> 100 µM (inactive)	> 100 µM (inactive)	
C=C1C(=O)O[C@@H]2C[C@@H](C)[C@@H]3C=CC(=O)[C@@]3(C)[C@@H](OC(=O)CC(=O)O[C@H]3[C@@H]4C(=C)C(=O)O[C@@H]4C[C@@H](C)[C@@H]4C=CC(=O)[C@]43C)[C@H]12	0.0103 µM (active)	0.0174 µM (active)	0.102 µM (active)	0.146 µM (active)	< 0.01 µM (active)	0.0252 µM (active)	0.0296 µM (active)	0.167 µM (active)	0.033 µM (active)	0.0386 µM (active)	0.136 µM (active)	2.56 µM (inactive)	0.0582 µM (active)	0.161 µM (active)	0.0468 µM (active)	0.0238 µM (active)	0.117 µM (active)	0.137 µM (active)	0.213 µM (active)	
CC1=C(SCc2ccccc2)C(=O)c2ccccc2C1=O		15.5 µM (inactive)		26.7 µM (inactive)	2.9 µM (inactive)	14.8 µM (inactive)	4.72 µM (inactive)		10.5 µM (inactive)	16.7 µM (inactive)	13.4 µM (inactive)	19.8 µM (inactive)	16.7 µM (inactive)	21.8 µM (inactive)	13.9 µM (inactive)	13.4 µM (inactive)	21 µM (inactive)		24 µM (inactive)	21.7 µM (inactive)
COc1ccc(O[C@H](CO)C[C@@H]2COC(C)(C)O2)cc1	> 100 µM (inactive)	> 100 µM (inactive)	> 100 µM (inactive)	> 100 µM (inactive)	> 100 µM (inactive)	> 100 µM (inactive)			> 100 µM (inactive)	> 100 µM (inactive)	> 100 µM (inactive)	> 100 µM (inactive)	> 100 µM (inactive)	> 100 µM (inactive)	> 100 µM (inactive)	> 100 µM (inactive)	> 100 µM (inactive)	> 100 µM (inactive)	> 100 µM (inactive)	> 100 µM (inactive)
NC(=O)C(=Cn1c(=S)[nH]c2ccc([N+](=O)[O-])cc21)C(N)=O			28.8 µM (inactive)	> 100 µM (inactive)		> 100 µM (inactive)	> 100 µM (inactive)		> 100 µM (inactive)	> 100 µM (inactive)	97.9 µM (inactive)	> 100 µM (inactive)	> 100 µM (inactive)	> 100 µM (inactive)	> 100 µM (inactive)	> 100 µM (inactive)	> 100 µM (inactive)	> 100 µM (inactive)	> 100 µM (inactive)	> 100 µM (inactive)
CCOC(=O)[C@@H]1C2C(=C[C@H]3[C@H]1C(=O)N1CCCC[C@H]31)CCCN2C(=O)OCc1ccccc1 (stereo partly specified)		28.5 µM (inactive)	70.5 µM (inactive)	15.1 µM (inactive)	22.3 µM (inactive)	43.6 µM (inactive)	76.4 µM (inactive)		30.1 µM (inactive)	24.7 µM (inactive)	75.7 µM (inactive)	39.1 µM (inactive)	23.3 µM (inactive)	23.8 µM (inactive)	37.8 µM (inactive)	43.1 µM (inactive)	75.9 µM (inactive)	32.8 µM (inactive)	23.6 µM (inactive)	26.2 µM (inactive)
N#CC(C#N)=c1[nH]c2cccc3c2-c2c(cccc2c3=C(C#N)C#N)[nH]1	> 100 µM (inactive)	> 100 µM (inactive)	> 100 µM (inactive)	> 100 µM (inactive)	45.1 µM (inactive)	> 100 µM (inactive)	> 100 µM (inactive)		> 100 µM (inactive)		53.1 µM (inactive)		> 100 µM (inactive)	> 100 µM (inactive)	> 100 µM (inactive)	> 100 µM (inactive)	> 100 µM (inactive)	> 100 µM (inactive)	> 100 µM (inactive)	
Cc1[nH]c2c(c1C)S(=O)(=O)c1cc3ccccc3nc1N2	17.1 µM (inactive)	16.6 µM (inactive)	22 µM (inactive)	65.2 µM (inactive)	5.09 µM (inactive)	6.81 µM (inactive)	25.4 µM (inactive)		19.9 µM (inactive)	69.8 µM (inactive)	17.3 µM (inactive)	24.9 µM (inactive)	28.1 µM (inactive)	18.7 µM (inactive)	14.3 µM (inactive)	30.5 µM (inactive)	37.7 µM (inactive)	21.6 µM (inactive)	73.8 µM (inactive)	32.3 µM (inactive)
COC(CN1C(=O)c2cccc3cccc(c23)C1=O)OC	40.5 µM (inactive)	> 100 µM (inactive)	26.2 µM (inactive)	> 100 µM (inactive)	73.3 µM (inactive)	57.7 µM (inactive)	73.5 µM (inactive)		> 100 µM (inactive)		43.4 µM (inactive)		> 100 µM (inactive)	41.3 µM (inactive)	> 100 µM (inactive)		74.3 µM (inactive)	37.1 µM (inactive)	82.8 µM (inactive)	
Nc1nc(O)nc2sc3c(c12)CCCC3	51.5 µM (inactive)	37.8 µM (inactive)	4.57 µM (inactive)	82 µM (inactive)	41.3 µM (inactive)	42.8 µM (inactive)	> 100 µM (inactive)	23.6 µM (inactive)			19.7 µM (inactive)	> 100 µM (inactive)	90.4 µM (inactive)	56.4 µM (inactive)	38.5 µM (inactive)		92 µM (inactive)	81.7 µM (inactive)		> 100 µM (inactive)
CN(C)/C=C1\CCc2ccc([N+](=O)[O-])cc2C1=O	31 µM (inactive)	33 µM (inactive)	> 100 µM (inactive)	70.8 µM (inactive)	19.8 µM (inactive)			> 100 µM (inactive)	18.3 µM (inactive)		> 100 µM (inactive)	> 100 µM (inactive)	> 100 µM (inactive)	28.4 µM (inactive)	17.9 µM (inactive)	> 100 µM (inactive)	> 100 µM (inactive)	> 100 µM (inactive)	> 100 µM (inactive)	75 µM (inactive)
CN(C)CCNC(=O)Cn1ccc(=O)c2cc([N+](=O)[O-])ccc21	> 100 µM (inactive)	> 100 µM (inactive)	> 100 µM (inactive)	> 100 µM (inactive)	> 100 µM (inactive)	> 100 µM (inactive)	> 100 µM (inactive)	> 100 µM (inactive)	> 100 µM (inactive)			> 100 µM (inactive)	> 100 µM (inactive)	> 100 µM (inactive)		> 100 µM (inactive)	> 100 µM (inactive)	> 100 µM (inactive)	> 100 µM (inactive)	> 100 µM (inactive)
CC(=O)NC(C=O)C(O[C@H](C)C(=O)NC(C)C(=O)NC(CCC(N)=O)C(=O)OCc1ccccc1)C(O)C(O)COC(=O)CCNc1c2ccccc2nc2cccc([N+](=O)[O-])c12 (stereo partly specified)	0.637 µM (active)	2.15 µM (inactive)	2.6 µM (inactive)	1.54 µM (inactive)	1.94 µM (inactive)	6.12 µM (inactive)	2.31 µM (inactive)		1.85 µM (inactive)		3.97 µM (inactive)		1.79 µM (inactive)	1.73 µM (inactive)	12.2 µM (inactive)	1.45 µM (inactive)	13.6 µM (inactive)	16.9 µM (inactive)	> 100 µM (inactive)	
CC(=N)OC1CC2CCC1(C)C2(C)C (stereo unspecified)	> 100 µM (inactive)	> 100 µM (inactive)	> 100 µM (inactive)	> 100 µM (inactive)	> 100 µM (inactive)	> 100 µM (inactive)	> 100 µM (inactive)	> 100 µM (inactive)	> 100 µM (inactive)	> 100 µM (inactive)	> 100 µM (inactive)	> 100 µM (inactive)	> 100 µM (inactive)	> 100 µM (inactive)	> 100 µM (inactive)	> 100 µM (inactive)	> 100 µM (inactive)	> 100 µM (inactive)	> 100 µM (inactive)	

Reference: ChEMBL document CHEMBL1201862, “PubChem BioAssay data set” (2004)
